Consider three compounds from article PMC11938014, “Development and Application of Small Molecule–Peptide Conjugates as Cathepsin K-Specific Covalent Irreversible Inhibitors in Human Osteoclast and Lung Cancer” (JACS Au, 2025).

For series [1], the target named is T1, endogenous matured CTSK in intact U2-OS and U-87 MG cells (Homo sapiens, UniProt P43235).
T1 construct: endogenous in cells; host or cells: U2-OS and U-87 MG
T1 sequence (P43235 115-329): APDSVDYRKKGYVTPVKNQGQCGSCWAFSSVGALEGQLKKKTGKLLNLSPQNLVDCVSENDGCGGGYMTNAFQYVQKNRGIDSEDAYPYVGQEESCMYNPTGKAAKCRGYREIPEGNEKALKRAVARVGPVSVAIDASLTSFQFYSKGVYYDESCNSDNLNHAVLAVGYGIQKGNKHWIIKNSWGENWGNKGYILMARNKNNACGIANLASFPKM
Nature of the series: Competition assay in intact cells, GB123 labeling. The series is classed as cell-based. The following applies: escalating doses. Here is the method: Two cell lines, human osteosarcoma U2-OS and human glioblastoma U-87 MG, that naturally express CTSK along with other lysosomal cathepsins, were chosen to evaluate the inhibitors’ potency and selectivity.[43],[44] First, the intact cells were incubated for various durations with escalating doses of the inhibitors, and the ODN was used as a control. The residual cathepsin activity in the cells was detected by adding a pan-cathepsin ABP, GB123, after which the cells were lysed. The probe-labeled enzymes were then separated and visualized using fluorescent SDS-PAGE (Figures 5a,b and S7).[45] In both cells, the activity of several cathepsins was detected, while the fluorescent band at approximately 25 kDa was correlated to CTSK by immunoblotting (shown below in Figure 5a, b). The identity of each labeled band was detected by immunoblotting (Figure S7).[45] A selective dose-dependent suppression of CTSK activity was obtained in a range of inhibitor concentrations.
Figure 5 Direct inhibition of endogenous matured CTSK in intact U2-OS and U-87 MG cells. (a) Intact U2-OS cells were treated with DMSO, ODN, or increasing concentrations of the inhibitors GD20 or GD38 in their culture medium for 2 h. Cells were then treated with GB123 (5 μM) for 2 h, lysed, and separated by SDS-PAGE, followed by fluorescent scanning of the gel using a Typhoon scanner at 635/670 nm. An immunoblot of CTSK of the same gel is presented below. Different cathepsins are marked by colored arrowheads; a red arrowhead marks mature CTSK. s. ch. = single chain, h. ch. = heavy chain.[45] (b) Intact U-87 MG cells were treated with the inhibitor, followed by GB123, as described in panel (a).
U-87 MG and U2-0S cells (5 × 10^5 cells/well) were seeded in a six-well plate 1 day before treatment. […] Proteins were quantified by bicinchoninic acid (BCA, Thermo Scientific); an equal quantity of proteins was prepared for all samples, and after the addition of sample buffer, the lysates were boiled for 10 min, centrifuged, and separated by 12.5% SDS-PAGE. […]

The test system of series [2] is human osteoclasts. Nature of the series: Cell viability assay (methylene blue). The series is classed as cell-based. The note with it: different concentrations, 48 h. How it is done: […]
Cell viability assay: U2-OS, U-87 MG, or enriched monocyte cells were grown at 37 0C with 5% of CO2 in the respective medium as described previously. Cells were seeded (1500 cells/well in 96 wells plate) one day before the incubation with indicated inhibitor s at various concentrations. After 48 h, cells were fixed, and viability was measured by quantita tive colorimetric assay using methylene blue according to the procedure reported by Ben -Bassat et al.9 The data were expressed as a percentage of control; data represent the mean of 2 experiments with triplicates for each treatment (± standard deviation).
Figure S10. Cell viability assay. a) U2-OS and, b) U-87 MG were incubated with the different concentrations of indicated inhibitors. After a 48 h incubation cells were fixed, and viability was measured by methylene blue assay.The data were expressed as a percentage of control; data represent the mean of 2 experiments with triplicates for each treatment (± SD). Statistical differences were evaluated by two -tailed Student’s t -test from two independent experiments.
Student’s t -test was non-significant except for samples indicated with *, P <0.05 and **, P <0.01. (c) Human osteoclasts were incubated with the different concentrations of indicated inhibitors. After a 48 h incubation cells were fixed, and viability was measured by methylene […]
(also on this page, place not known: t-test non -significant t-test 0 20 40 60 80 100 120 (0.5 µM)(5 µM)(1 µM)(5 µM)(1 µM) (0.5 µM) ODNGD38GD38GD38GD20GD20GD20 (0.5 µM) Cell viability (% of control) Concentration of compound) […]
(1 picture or pasted object on this page, not shown here)

Series [3] has as its target T2, CTSK (Homo sapiens, UniProt P43235).
T2 construct: made in house
T2 sequence (P43235 115-329): T1 sequence (P43235 115-329)
Nature of the series: Kinetic evaluation of recombinant cathepsin inhibition, fluorogenic substrate Z-FR-AMC. The note with it: for Ki: irreversible inhibitors. Type of series: biochemical. How it is done:
(§1) Cathepsin (0.4 nM, CatK) or 5 nM (CatS, CatB, and CatL) were each mixed with inhibitors before adding the fluorogenic substrate. The proteases were then reacted with their substrates, Z-RR-AMC (CatL) or Z-FR-AMC (CatS, CatB, and CatK), for 30 min at 37 °C in the phosphate buffer (100 mM Na2HPO4/NaH2PO4, 50 mM NaCl, 5 mM DTT, 0.1% PEG-6000, at pH 6). Reactions were done in 96-well black flat-bottom microplates (Greiner, Germany); fluorescence (Ex/Em 370 and 460 nm) was measured by a Tecan INFINITE M1000 pro plate reader (Tecan, Switzerland) in the presence of inhibitors or vehicle. For irreversible inhibitors, reaction data were analyzed by using the one-phase association formula in GraphPad Prism 9 software: Y = Y0 + (plateau – Y0) × (1 – exp(−K × X)), where Y0 and Y denote the fluorescence signals at times 0 and t, respectively, K represents the observed reaction rate kobs, and X signifies the […]. The inactivation rates at each inhibitor concentration were determined by subtracting the inactivation observed in the control sample: kobs – kctrl. The maximum inactivation rate (kinact) was derived as the asymptote from the equation Y = kinact × X/(Ki^app + X), where X represents the inhibitor concentration, Y is the observed inactivation rate for each X, and Ki^app is the apparent inhibition constant. Ki values were derived from IC50 or Ki^app using the equations Ki = Ki^app/(1 + […]) and IC50 = E0/2 + Ki^app, where Km represents the Michaelis–Menten constant, S denotes substrate concentration, and E0 indicates cathepsin concentration. The maximum inhibitor dose in the experiment was 50 μM. Measurements were conducted in multiple independent duplicates. Average values are listed.

Series [4] deals with T3, CTSS (Homo sapiens, UniProt P25774).
T3 construct: made in house
The description is as above. Type of series: biochemical. How it is done:
as §1

T3 sequence (P25774 115-331): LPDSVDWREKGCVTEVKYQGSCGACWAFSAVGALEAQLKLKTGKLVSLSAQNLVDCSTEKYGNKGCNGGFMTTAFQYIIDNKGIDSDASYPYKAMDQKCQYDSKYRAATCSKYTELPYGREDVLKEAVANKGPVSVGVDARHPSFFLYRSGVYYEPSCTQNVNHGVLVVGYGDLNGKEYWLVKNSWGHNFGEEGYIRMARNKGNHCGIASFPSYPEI

Broadly, the IC50 is the concentration at which inhibition is half-maximal. Take `CC(C)(F)C[C@H](N[C@@H](c1ccc(-c2ccc(S(C)(=O)=O)cc2)cc1)C(F)(F)F)C(=O)NC1(C#N)CC1` [ODN, odanacatib, reference compound]: in series [1], the “inhibition of CTSK and selectivity over other cathepsins in intact cells, in words” value (shortened to “inhibition of CTSK and selectivity”) was “could not detect”. Besides, in series [2], the “cell viability (% of control) vs control” value is listed as “no significant differences”. For the same compound, the “type of inhibition, CTSK” value in series [3] is reported as “reversible (tight binding)”. In series [3] (reversible (tight binding)), the half-inhibitory concentration (IC50) came out at 0.942 nM. In series [4], the “type of inhibition, CTSS” value is “reversible”. Further, the Ki in series [4] (reversible) was 136 nM.
A word on the kinact: it is the maximal first-order rate at which the target is inactivated. In general, kinact/KI refers to the maximal inactivation rate divided by the concentration that gives half of it. `CC(C)C[C@H](N[C@@H](c1ccc(-c2ccc(S(C)(=O)=O)cc2)cc1)C(F)(F)F)C(=O)NCC(=O)COC(=O)[C@@H]1CCCN1C(=O)[C@H](CCC(N)=O)NC(=O)OCC1c2ccccc2-c2ccccc21` [GD38]: in series [1], the “inhibition of CTSK and selectivity” value was “slightly reduced the activity of other cathepsins at high concentrations and longer incubation times”. Moreover, the “cell viability (% of control) vs control” value in series [2] is “no significant differences”. In series [3], the kinact was 0.0032 s⁻¹; the kinact/KI worked out at 230000 M⁻¹ s⁻¹; the “type of inhibition, CTSK” value was “irreversible”; the Ki came out at 20.9 nM. Further, in series [4], the kinact came to 0.009 s⁻¹; the kinact/KI amounted to 178 M⁻¹ s⁻¹; the “type of inhibition, CTSS” value is reported as “irreversible”. The Ki in series [4] (irreversible inhibitor) is 62000 nM.
Consider `CC(C)C[C@H](N[C@@H](c1ccc(-c2ccc(S(C)(=O)=O)cc2)cc1)C(F)(F)F)C(=O)NCC(=O)COC(=O)[C@@H]1CCCN1C(=O)[C@H](CC(C)C)NC(=O)OCC1c2ccccc2-c2ccccc21` [GD20], for which the “inhibition of CTSK and selectivity” value in series [1] is “very selective at all concentrations tested”. Besides, in series [2], the “cell viability (% of control) vs control” value is “no significant differences”. Further, in series [3], the kinact was 0.0026 s⁻¹; the kinact/KI is 232000 M⁻¹ s⁻¹; the “type of inhibition, CTSK” value is recorded as “irreversible”; the Ki was determined as 13 nM. Besides, the Ki in series [4] (maximum inhibitor dose 50 μM) is above 50000 nM.
